In brackets after ≈: the same amount, converted by molar mass.
Assays:
physchem = details: water
[1] = Acute toxicity, intragastric administration (maximum tolerated dose); details: both, mouse, in vivo, po, 1250 mg/kg

Q: With `O=C1c2c(O)cc(O)cc2O[C@H](c2cc(O)c(O)c(O)c2)[C@H]1O` [PDHM, piperidinium 2,3-dihydroxy-5-((2R,3R)-3,5,7-trihydroxy-4-oxochroman-2-yl)phenolate] as the compound, how does the solubility (physchem) read?
A: 5000 µg/mL (≈ 15.6 mM)

Q: What about the MTD at 7 days [1] of the same compound?
A: 3750 mg/kg
